Measurements: the kinase profiling compilation of Christmann-Franck et al. (2016)

Experiments:
Test in all cases: KINOMEscan competition binding
Conditions in all cases: compound 10.0 µM
[1] = target: ADCK3 (human) (UniProt Q8NI60)
[2] = target: AKT1 (human) (UniProt P31749)
[3] = target: AKT2 (human) (UniProt P31751)
[4] = target: CDC2L2 (human) (UniProt Q9UQ88)
[5] = target: CDK11B (human) (UniProt P21127)
[6] = target: DAPK3 (human) (UniProt O43293)
[7] = target: DCLK1 (human) (UniProt O15075)
[8] = target: EPHB2 (human) (UniProt P29323)
EPHB2 (human), sequence (P29323 whole entry, looked up): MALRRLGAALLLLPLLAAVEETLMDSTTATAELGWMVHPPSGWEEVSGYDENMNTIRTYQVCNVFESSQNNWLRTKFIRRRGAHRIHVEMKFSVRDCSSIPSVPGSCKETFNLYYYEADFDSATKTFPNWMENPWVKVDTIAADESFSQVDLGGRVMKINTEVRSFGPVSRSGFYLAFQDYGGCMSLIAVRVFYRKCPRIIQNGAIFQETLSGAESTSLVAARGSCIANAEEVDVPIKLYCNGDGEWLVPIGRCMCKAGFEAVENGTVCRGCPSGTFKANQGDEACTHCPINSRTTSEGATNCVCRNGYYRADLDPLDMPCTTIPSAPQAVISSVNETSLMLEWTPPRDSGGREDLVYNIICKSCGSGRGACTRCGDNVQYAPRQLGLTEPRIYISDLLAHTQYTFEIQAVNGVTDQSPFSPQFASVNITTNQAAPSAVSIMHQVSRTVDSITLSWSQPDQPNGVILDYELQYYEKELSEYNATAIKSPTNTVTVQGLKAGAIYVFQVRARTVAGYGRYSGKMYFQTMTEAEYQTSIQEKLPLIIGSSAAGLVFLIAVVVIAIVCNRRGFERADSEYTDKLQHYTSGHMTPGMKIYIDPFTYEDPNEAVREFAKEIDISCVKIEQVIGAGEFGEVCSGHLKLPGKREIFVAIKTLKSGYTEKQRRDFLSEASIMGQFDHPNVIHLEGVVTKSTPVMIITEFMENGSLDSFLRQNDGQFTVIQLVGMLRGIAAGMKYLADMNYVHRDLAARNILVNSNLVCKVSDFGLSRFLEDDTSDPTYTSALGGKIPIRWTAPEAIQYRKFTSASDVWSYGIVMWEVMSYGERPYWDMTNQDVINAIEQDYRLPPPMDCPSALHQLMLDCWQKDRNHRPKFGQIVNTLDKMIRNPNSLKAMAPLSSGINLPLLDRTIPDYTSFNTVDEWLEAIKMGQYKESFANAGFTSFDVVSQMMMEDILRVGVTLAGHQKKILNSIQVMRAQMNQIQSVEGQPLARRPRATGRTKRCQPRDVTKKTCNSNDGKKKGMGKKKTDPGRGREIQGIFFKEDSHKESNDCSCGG

[9] = target: EPHB3 (human) (UniProt P54753)
[10] = target: ERBB4 (human) (UniProt Q15303)
ERBB4 (human), sequence (Q15303 whole entry, looked up): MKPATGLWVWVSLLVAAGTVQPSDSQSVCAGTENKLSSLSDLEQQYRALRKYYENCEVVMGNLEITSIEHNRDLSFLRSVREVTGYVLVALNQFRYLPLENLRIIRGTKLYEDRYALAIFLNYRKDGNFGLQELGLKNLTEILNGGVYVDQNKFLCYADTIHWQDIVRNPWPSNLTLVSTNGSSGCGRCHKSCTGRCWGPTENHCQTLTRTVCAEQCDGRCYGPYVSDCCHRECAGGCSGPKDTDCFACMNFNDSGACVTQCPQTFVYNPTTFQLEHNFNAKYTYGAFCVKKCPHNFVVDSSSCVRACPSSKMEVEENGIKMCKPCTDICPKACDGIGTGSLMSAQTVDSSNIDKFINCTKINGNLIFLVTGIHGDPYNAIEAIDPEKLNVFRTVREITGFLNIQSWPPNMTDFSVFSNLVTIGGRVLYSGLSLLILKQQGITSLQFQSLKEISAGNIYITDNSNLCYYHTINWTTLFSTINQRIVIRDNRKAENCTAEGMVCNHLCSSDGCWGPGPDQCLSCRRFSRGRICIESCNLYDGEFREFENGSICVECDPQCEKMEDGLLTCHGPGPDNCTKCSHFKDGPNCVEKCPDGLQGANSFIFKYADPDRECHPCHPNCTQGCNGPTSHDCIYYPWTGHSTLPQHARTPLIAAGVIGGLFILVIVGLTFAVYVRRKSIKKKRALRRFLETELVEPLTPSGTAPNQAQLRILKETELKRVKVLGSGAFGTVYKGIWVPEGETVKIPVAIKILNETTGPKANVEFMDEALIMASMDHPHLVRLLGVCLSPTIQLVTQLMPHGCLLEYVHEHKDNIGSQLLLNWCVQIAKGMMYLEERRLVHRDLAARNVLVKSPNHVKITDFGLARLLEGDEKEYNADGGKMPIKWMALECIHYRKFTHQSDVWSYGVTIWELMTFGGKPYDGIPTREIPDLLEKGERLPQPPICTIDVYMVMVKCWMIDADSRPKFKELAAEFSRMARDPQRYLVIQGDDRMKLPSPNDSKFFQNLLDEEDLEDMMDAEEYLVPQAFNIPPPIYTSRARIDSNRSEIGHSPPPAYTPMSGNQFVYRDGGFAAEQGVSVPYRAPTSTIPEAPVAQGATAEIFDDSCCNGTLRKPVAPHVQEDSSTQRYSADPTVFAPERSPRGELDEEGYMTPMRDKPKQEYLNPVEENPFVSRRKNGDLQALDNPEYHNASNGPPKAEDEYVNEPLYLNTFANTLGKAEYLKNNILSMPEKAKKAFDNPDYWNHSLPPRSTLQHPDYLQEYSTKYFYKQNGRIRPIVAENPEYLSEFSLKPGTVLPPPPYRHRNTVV

[11] = target: FES (human) (UniProt P07332)
[12] = target: IKBKE (human) (UniProt Q14164)
[13] = tested on: KIT (human), P10721 [D816V]
[14] = target: LIMK2 (human) (UniProt P53671)
[15] = target: LTK (human) (UniProt P29376)
[16] = target: MAP2K6 (human) (UniProt P52564)
[17] = target: MAP3K3 (human) (UniProt Q99759)
[18] = target: MAPK1 (human) (UniProt P28482)
[19] = target: MAPK11 (human) (UniProt Q15759)
[20] = target: MAPK15 (human) (UniProt Q8TD08)
[21] = target: MAPK6 (human) (UniProt Q16659)
[22] = target: MAPKAPK5 (human) (UniProt Q8IW41)
[23] = target: MARK3 (human) (UniProt P27448)
[24] = target: NEK7 (human) (UniProt Q8TDX7)
[25] = target: NLK (human) (UniProt Q9UBE8)
[26] = target: PDPK1 (human) (UniProt O15530)
PDPK1 (human), sequence (O15530 whole entry, looked up): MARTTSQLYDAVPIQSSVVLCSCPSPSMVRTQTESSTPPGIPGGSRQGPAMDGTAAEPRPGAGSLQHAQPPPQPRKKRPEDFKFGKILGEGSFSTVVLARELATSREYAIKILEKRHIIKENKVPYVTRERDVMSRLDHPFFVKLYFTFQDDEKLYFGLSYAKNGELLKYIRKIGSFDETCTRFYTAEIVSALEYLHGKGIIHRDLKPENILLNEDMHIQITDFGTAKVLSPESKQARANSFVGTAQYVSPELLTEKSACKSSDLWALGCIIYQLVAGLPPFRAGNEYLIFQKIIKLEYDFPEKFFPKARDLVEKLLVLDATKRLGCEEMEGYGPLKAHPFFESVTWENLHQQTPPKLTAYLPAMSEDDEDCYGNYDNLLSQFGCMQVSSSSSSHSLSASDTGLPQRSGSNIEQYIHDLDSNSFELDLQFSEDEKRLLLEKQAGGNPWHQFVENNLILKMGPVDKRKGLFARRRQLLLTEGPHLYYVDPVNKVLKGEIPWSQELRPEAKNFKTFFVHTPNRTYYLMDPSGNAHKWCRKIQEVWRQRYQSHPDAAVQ

[27] = target: PIP4K2B (human) (UniProt P78356)
[28] = target: PIP5K1A (human) (UniProt Q99755)
[29] = target: PLK3 (human) (UniProt Q9H4B4)
PLK3 (human), sequence (Q9H4B4 whole entry, looked up): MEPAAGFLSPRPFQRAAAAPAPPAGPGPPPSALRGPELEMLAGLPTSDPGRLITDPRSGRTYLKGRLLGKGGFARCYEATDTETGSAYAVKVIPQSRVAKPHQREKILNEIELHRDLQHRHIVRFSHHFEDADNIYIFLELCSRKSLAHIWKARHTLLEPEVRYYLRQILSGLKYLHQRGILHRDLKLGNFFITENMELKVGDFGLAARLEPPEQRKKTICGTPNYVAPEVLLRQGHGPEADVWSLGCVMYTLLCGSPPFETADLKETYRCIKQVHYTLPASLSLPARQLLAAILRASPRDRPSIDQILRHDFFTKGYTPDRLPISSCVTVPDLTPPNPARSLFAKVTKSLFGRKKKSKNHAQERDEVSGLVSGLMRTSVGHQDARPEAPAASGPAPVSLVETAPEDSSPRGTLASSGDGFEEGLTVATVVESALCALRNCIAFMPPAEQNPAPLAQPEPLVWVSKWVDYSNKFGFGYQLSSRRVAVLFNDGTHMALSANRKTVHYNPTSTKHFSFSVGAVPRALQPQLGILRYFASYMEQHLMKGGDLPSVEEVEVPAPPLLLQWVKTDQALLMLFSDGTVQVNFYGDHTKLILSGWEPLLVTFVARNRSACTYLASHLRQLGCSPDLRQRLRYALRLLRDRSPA

[30] = target: PTK2 (human) (UniProt Q05397)
[31] = target: PTK6 (human) (UniProt Q13882)
PTK6 (human), sequence (Q13882 whole entry, looked up): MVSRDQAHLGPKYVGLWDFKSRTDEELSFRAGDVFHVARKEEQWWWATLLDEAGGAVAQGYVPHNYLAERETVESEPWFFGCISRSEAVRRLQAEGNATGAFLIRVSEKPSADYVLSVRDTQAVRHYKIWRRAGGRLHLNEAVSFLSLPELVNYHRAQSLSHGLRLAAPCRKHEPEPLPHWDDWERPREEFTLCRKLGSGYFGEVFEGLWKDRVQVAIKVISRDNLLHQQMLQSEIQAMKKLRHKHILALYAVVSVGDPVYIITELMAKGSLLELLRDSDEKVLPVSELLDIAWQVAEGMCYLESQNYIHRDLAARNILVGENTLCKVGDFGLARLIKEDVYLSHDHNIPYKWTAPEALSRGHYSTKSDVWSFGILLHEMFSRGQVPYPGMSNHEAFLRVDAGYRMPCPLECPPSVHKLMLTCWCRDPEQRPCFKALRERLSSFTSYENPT

[32] = target: RPS6KA4 KD1 (human) (UniProt O75676)
[33] = target: SGK110 (human) (UniProt P0C264)
[34] = target: STK10 (human) (UniProt O94804)
[35] = target: STK16 (human) (UniProt O75716)
[36] = target: STK4 (human) (UniProt Q13043)
[37] = target: TAOK3 (human) (UniProt Q9H2K8)
[38] = target: TESK1 (human) (UniProt Q15569)
[39] = target: TGFBR2 (human) (UniProt P37173)
[40] = target: TSSK1B (human) (UniProt Q9BXA7)

CDK11B (human), sequence (P21127 whole entry, looked up): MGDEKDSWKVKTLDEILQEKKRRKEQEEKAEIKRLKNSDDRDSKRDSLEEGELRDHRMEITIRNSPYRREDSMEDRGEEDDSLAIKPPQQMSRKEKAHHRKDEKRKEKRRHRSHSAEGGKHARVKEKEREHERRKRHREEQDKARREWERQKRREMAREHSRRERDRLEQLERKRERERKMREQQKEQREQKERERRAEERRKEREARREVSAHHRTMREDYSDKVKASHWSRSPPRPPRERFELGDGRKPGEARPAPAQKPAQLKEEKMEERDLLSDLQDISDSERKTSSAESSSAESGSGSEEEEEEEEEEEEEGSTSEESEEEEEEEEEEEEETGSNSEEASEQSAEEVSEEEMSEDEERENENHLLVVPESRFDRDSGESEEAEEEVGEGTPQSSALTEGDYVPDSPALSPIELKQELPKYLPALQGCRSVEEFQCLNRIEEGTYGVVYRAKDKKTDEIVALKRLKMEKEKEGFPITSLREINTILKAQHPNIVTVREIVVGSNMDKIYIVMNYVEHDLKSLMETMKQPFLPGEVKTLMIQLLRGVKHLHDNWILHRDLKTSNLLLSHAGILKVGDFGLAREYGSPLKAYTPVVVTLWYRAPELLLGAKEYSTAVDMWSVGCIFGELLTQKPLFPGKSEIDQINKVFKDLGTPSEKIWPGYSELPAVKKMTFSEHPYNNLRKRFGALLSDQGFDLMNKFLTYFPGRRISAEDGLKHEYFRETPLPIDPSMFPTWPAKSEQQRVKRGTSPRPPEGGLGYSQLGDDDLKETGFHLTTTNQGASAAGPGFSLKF

Row | Structure (SMILES) | kinase still bound, per cent of control [1] | kinase still bound, per cent of control [2] | kinase still bound, per cent of control [3] | kinase still bound, per cent of control [5] | kinase still bound, per cent of control [6] | kinase still bound, per cent of control [7] | kinase still bound, per cent of control [8] | kinase still bound, per cent of control [9] | kinase still bound, per cent of control [10] | kinase still bound, per cent of control [11] | kinase still bound, per cent of control [12] | kinase still bound, per cent of control [14] | kinase still bound, per cent of control [15] | kinase still bound, per cent of control [16] | kinase still bound, per cent of control [17] | kinase still bound, per cent of control [18] | kinase still bound, per cent of control [19] | kinase still bound, per cent of control [20] | kinase still bound, per cent of control [21] | kinase still bound, per cent of control [22] | further results
1 | COc1cc(C(=O)NC2CCN(C)CC2)ccc1Nc1ncc2c(n1)N(C1CCCC1)CCC(=O)N2C(C)C | 100% | 100% | 100% | 100% | 100% | 100% | 100% | 100% | 100% | 100% | 100% | 100% | 100% | 100% | 100% | 100% | 100% | 100% | 100% | 100% | kinase still bound, per cent of control [4]: 100%; kinase still bound, per cent of control [13]: 100%; kinase still bound, per cent of control [23]: 100%; kinase still bound, per cent of control [24]: 100%; kinase still bound, per cent of control [25]: 100%; kinase still bound, per cent of control [26]: 100%; kinase still bound, per cent of control [27]: 100%; kinase still bound, per cent of control [28]: 6.4%; kinase still bound, per cent of control [29]: 100%; kinase still bound, per cent of control [30]: 100%; kinase still bound, per cent of control [31]: 100%; kinase still bound, per cent of control [32]: 100%; kinase still bound, per cent of control [33]: 100%; kinase still bound, per cent of control [34]: 100%; kinase still bound, per cent of control [35]: 100%; kinase still bound, per cent of control [36]: 100%; kinase still bound, per cent of control [37]: 100%; kinase still bound, per cent of control [38]: 100%; kinase still bound, per cent of control [39]: 100%; kinase still bound, per cent of control [40]: 100%
2 | COc1cc(N2CCN(C)CC2)ccc1Nc1nc(N)c(C(=O)c2c(Cl)cccc2Cl)s1 | 93% | 100% | 100% | 5.3% | 78% | 3% | 100% | 0% | 100% | 45% | 87% | 94% | 4.2% | 85% | 76% | 100% | 77% | 84% | 100% | 100% | kinase still bound, per cent of control [13]: 92%; kinase still bound, per cent of control [23]: 100%; kinase still bound, per cent of control [24]: 100%; kinase still bound, per cent of control [25]: 85%; kinase still bound, per cent of control [26]: 100%; kinase still bound, per cent of control [27]: 100%; kinase still bound, per cent of control [28]: 88%; kinase still bound, per cent of control [29]: 88%; kinase still bound, per cent of control [30]: 62%; kinase still bound, per cent of control [31]: 100%; kinase still bound, per cent of control [32]: 100%; kinase still bound, per cent of control [33]: 100%; kinase still bound, per cent of control [34]: 40%; kinase still bound, per cent of control [35]: 90%; kinase still bound, per cent of control [36]: 100%; kinase still bound, per cent of control [37]: 12%; kinase still bound, per cent of control [38]: 100%; kinase still bound, per cent of control [39]: 92%; kinase still bound, per cent of control [40]: 87%
3 | CCC(=O)N1CCN(c2ccc(-n3c(=O)ccc4cnc5ccc(-c6cnc7ccccc7c6)cc5c43)cc2C(F)(F)F)CC1 | 17% | 91% | 100% | 97% | 82% | 100% | 100% | 85% | 100% | 41% | 87% | 4.8% | 77% | 100% | 75% | 100% | 53% | 79% | 1.8% | 100% | kinase still bound, per cent of control [4]: 100%; kinase still bound, per cent of control [23]: 100%; kinase still bound, per cent of control [24]: 90%; kinase still bound, per cent of control [25]: 25%; kinase still bound, per cent of control [26]: 100%; kinase still bound, per cent of control [27]: 100%; kinase still bound, per cent of control [28]: 89%; kinase still bound, per cent of control [29]: 87%; kinase still bound, per cent of control [30]: 14%; kinase still bound, per cent of control [31]: 51%; kinase still bound, per cent of control [32]: 100%; kinase still bound, per cent of control [33]: 94%; kinase still bound, per cent of control [34]: 79%; kinase still bound, per cent of control [35]: 18%; kinase still bound, per cent of control [36]: 7.6%; kinase still bound, per cent of control [37]: 76%; kinase still bound, per cent of control [38]: 58%; kinase still bound, per cent of control [39]: 77%; kinase still bound, per cent of control [40]: 100%
